Measurements taken from PMC3005762 (Chemical communications (Cambridge, England), 2010).

Biological target: T1, DC-SIGN (Homo sapiens, UniProt Q9NNX6)
T1 sequence (Q9NNX6 59-404 limits assumed): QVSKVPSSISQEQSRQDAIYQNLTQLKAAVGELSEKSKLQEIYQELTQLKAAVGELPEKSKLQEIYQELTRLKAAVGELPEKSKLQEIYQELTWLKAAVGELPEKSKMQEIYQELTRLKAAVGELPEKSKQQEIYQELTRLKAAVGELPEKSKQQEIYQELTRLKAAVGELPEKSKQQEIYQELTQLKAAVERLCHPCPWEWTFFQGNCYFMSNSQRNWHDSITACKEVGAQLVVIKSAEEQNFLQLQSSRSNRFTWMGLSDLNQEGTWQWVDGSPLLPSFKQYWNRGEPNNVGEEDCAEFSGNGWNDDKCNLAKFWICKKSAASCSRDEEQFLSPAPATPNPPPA
Format: binding

IC50: 11.2 ± 0.7 mM
SMILES: CC(=O)N[C@@H]1C(O)O[C@H](CO)[C@@H](O)[C@@H]1O (stereo partly shown) [N-acetylmannosamine]
